Common to all, as to assay type: cell-based, mouse
One assay concerns macrophages. Put plainly: M2 marker expression in macrophages (Western blot, RT-qPCR, flow cytometry). How it is done: After blocking with 10% BSA for 10 min, cells were incubated with anti-CD206 (Rabbit polyclonal, Abcam) or anti-Gpr132 (Rabbit polyclonal, Sigma) antibodies (1:100) for 30 min at 4° C., washed with cold PBS, and then incubated with FITC-conjugated secondary antibodies (1:100) for 30 min at 4° C. After washing twice using cold PBS, cells were analyzed by flow cytometer (Becton Dickinson). RNA was isolated from cells or mouse tissues using Trizol (Invitrogen) following the manufacturer's instructions. RNA (200-500 ng) was first treated with RNase-free DNase I using the DNA-free kit (Ambion) to remove all genomic DNA, and then reverse-transcribed into cDNA using an ABI High Capacity cDNA RT Kit (Invitrogen). The cDNA was analyzed using real-time quantitative PCR (SYBR Green, Invitrogen) with an Applied Biosystems 7900 Sequence Detection System. Each reaction was performed in triplicate in a 384-well format. The expression of each gene was normalized by that of mouse ribosomal protein L19. Samples of 20 μg protein were applied to SDS polyacrylamide gels. After protein transfer, membranes were incubated with antibodies for […] (rabbit polyclonal, Santa Cruz Biotechnology), CD206, Gpr132, or β-actin (mouse monoclonal, Sigma) (1:1000) overnight at 4° C. Membranes were washed, and then incubated with HRP-conjugated secondary antibodies (1:1000) for 1 hr at room temperature before signal detection by chemiluminescence (Pierce). Densitometric quantification was performed by Image-Pro Plus 6.0 software (Media Cybernetics). PathScan Akt Signaling Antibody Array (Cell Signaling) was incubated with macrophage proteins and analyzed following kit instructions.
(In general: In western blotting, separated proteins are transferred to a membrane and probed.)

The subject of assay [1] is bone marrow derived macrophages (BMDMs). The assay is described as follows: macrophage M2-like morphology (elongation). Particulars: WT BMDMs, exogenous lactate added. From the text:
FIGS. 9A-9D. Tumor-derived factors activate M2-like macrophages via Gpr132. (FIG. 9A) The pH values of conditioned media (CM) from cancer cells or macrophages (n=5-8); *p<0.05, ****p<0.001 compared with RAW 264.7 macrophage CM. (FIG. 9B) Western blot for CD206 and Gpr132 in RAW 264.7 macrophages after treatment with indicated cancer cell CM for 24 hrs. Actin was used as a loading control. The CD206/actin or Gpr132/actin ratio was quantified and shown as fold changes compared to control (n=3); *p<0.05, ***p<0.005 compared with control. (FIG. 9C) Flow cytometry analysis of Gpr132 and CD206 in BMDMs with or without EO771 CM treatment. The experiments were repeated twice and the representative results are shown. (FIG. 9D) Immunofluorescence staining for CD11b in WT and Gpr132-KO BMDMs after differentiation in the absence or presence of 30% EO771 CM or 4T1.2 CM for 7 days. Elongated macrophage morphology indicates a M2-like phenotype. Nuclei were stained with DAPI. Scale bar, 25 μm. WT, wild-type; Gpr132-KO, Gpr132 knockout.
FIGS. 10A-10F. […] LC-MS was used to quantify lactate in the eluent of Gpr132 co-IP. (Left) Representative LC-MS chromatograms; (Right) Quantification of relative lactate binding (n=3). ****p<0.001 compared with WT. […] CD206/actin ratio was quantified and shown as fold changes compared to control (n=3-4); *p<0.05 compared with WT control. […]

The subject of a further assay is Gpr132. The assay is described as follows: calcium mobilization assay in BMDMs. The following applies: WT or Gpr132-KO BMDMs stimulated with 25 mM. The protocol: FIG. 27. […] WT or Gpr132-KO BMDMs were stimulated with 25 mM lactate (Left) or HCl (Right) (n=3).
To determine whether Gpr132 is required for lactate signaling in macrophages, a calcium mobilization assay was performed. […] First, lactate levels in the CM of distinct cancer cell lines were measured using a Vitros 250 chemistry analyzer. […] Second, the effects of blocking lactate production from EO771 and 4T1.2 cells by oxamic acid, an inhibitor of lactate dehydrogenase was tested.
(In general: A change in cytosolic calcium serves as a functional read-out for many receptors and channels.)

In the case of `CC(O)C(=O)O` (stereo not shown) [lactate], in the assay with macrophages (exogenous lactate 5 mM 24 hrs (Western) or 25 mM 6 hrs (RT-qPCR), WT), the “expression of M2 markers (CD206, GM-CSF, CCL17) in WT macrophages” value was “increased”. The “effects on M2 markers in Gpr132-KO macrophages” value with macrophages (exogenous lactate, Gpr132-KO) is listed as “absent or largely attenuated”. In addition, in assay [1], the “rescue of M2-like morphology by addition to CM of oxamic acid-treated cells” value is reported as “restored”. In the assay with Gpr132, the “effect of Gpr132 deletion on triggered calcium mobilization” value is “compromised”.
